Here are results for two molecules from patent publication US8163779B2, “Glucokinase activators” (Takeda San Diego, Inc., priority 2006, dated 2012).

The target in the assay is T1, glucokinase (GK) (Homo sapiens, UniProt P35557).
T1 construct: I.D. No. 1 corresponds to residues 12-465 of glucokinase; made in house; host or cells: E. coli DH10b-T1r
T1 sequence (P35557 with tags, fused parts or gaps isoform P35557-2): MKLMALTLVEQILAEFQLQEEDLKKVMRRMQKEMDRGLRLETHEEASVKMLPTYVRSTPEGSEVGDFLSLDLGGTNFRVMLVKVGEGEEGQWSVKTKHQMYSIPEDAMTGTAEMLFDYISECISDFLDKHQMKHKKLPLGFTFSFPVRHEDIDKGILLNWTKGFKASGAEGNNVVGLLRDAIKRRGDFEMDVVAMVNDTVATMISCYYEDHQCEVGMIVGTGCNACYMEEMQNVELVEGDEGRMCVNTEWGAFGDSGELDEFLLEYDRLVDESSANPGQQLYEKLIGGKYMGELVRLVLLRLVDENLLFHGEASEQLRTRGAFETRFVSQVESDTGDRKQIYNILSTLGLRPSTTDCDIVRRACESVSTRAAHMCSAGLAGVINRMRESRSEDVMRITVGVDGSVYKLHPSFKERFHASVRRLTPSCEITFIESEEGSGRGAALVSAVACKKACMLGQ
In words: enzymatic glucokinase activity assay (ATP consumption, KinaseGlo luminescence). The assay is classed as biochemical. The following applies: recombinant GK residues 12-465; 5 μM ATP, 5 mM Glucose; Kact = concentration that displays 50% of the maximal increase in GK activity; read-out: pKact. The essentials:
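Activation was scored as ATP consumption, quantified by KinaseGlo luciferase luminescence after a 60 min room-temperature reaction. Reactions contained E. coli-expressed, purified GK, 5 μM ATP, 5 mM glucose, 10 mM MgCl2, 0.01% Brij35 and 2% DMSO at pH 7.2; pKact was fitted non-linearly.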
Background: Kinase-Glo measures the ATP left after a reaction by luminescence.

In the case of `Cc1csc(-c2cc(C)n([C@@H](CC3CCCCC3)C(=O)Nc3nccs3)c(=O)c2)c1` [Example 111, (S)-3-cyclohexyl-2-(6-methyl-4-(4-methylthiophen-2-yl)-2-oxopyridin-1(2H)-yl)-N-(thiazol-2-yl)propanamide], the EC50 is over 15.8 µM.
To `Cc1cc(S(=O)(=O)c2cccc(Cl)c2)cc(=O)n1[C@@H](CC1CCOCC1)C(=O)Nc1ncc(F)s1` [Example 168, (S)2-(4-(3-chlorophenylsulfonyl)-6-methyl-2-oxopyridin-1(2H)-yl)-N-(5-fluorothiazol-2-yl)-3-(tetrahydro-2H-pyran-4-yl)propanamide] belongs under 1.58 µM.
